Source: PubChem BioAssay (NCI)
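96-well plates; 48 h exposure; 5 concentrations. Endpoints by linear interpolation between flanking doses. Not reached: highest tested concentration assigned. Here, GI50 denotes the concentration required for 50% inhibition of growth. TGI: total growth inhibition.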

How the values were obtained:
Assay in all cases: DTP human tumour cell line panel, 48 h
[1] = tested on: DU-145 prostate
[2] = tested on: ACHN renal
[3] = tested on: SF-295 CNS
[4] = tested on: SK-OV-3 ovarian
[5] = tested on: MDA-MB-231 breast
[6] = tested on: A549 NSCLC
[7] = tested on: HCT-116 colon
[8] = tested on: T-47D breast
[9] = tested on: MCF7 breast
[10] = tested on: SW-620 colon
[11] = tested on: HOP-92 NSCLC
[12] = tested on: EKVX NSCLC
[13] = tested on: HT29 colon
[14] = tested on: SNB-75 CNS
[15] = tested on: UACC-257 melanoma
[16] = tested on: M14 melanoma
[17] = tested on: 786-0 renal
[18] = tested on: MDA-MB-468 breast
[19] = tested on: HCT-15 colon
[20] = tested on: UACC-62 melanoma
[21] = tested on: OVCAR-4 ovarian
[22] = tested on: SK-MEL-28 melanoma
[23] = tested on: COLO 205 colon
[24] = tested on: SNB-19 CNS
[25] = tested on: RPMI-8226 leukemia
[26] = tested on: A498 renal
[27] = tested on: HS 578T breast
[28] = tested on: NCI-H226 lung
[29] = tested on: HOP-62 NSCLC
[30] = tested on: BT-549 breast
[31] = tested on: KM12 colon
[32] = tested on: SF-539 CNS
[33] = tested on: RXF 393 renal
[34] = tested on: MOLT-4 leukemia
[35] = tested on: K-562 leukemia
[36] = tested on: SF-268 CNS
[37] = tested on: NCI-H23 lung
[38] = tested on: MDA-MB-435
[39] = tested on: TK-10 renal
[40] = tested on: MALME-3M melanoma
[41] = tested on: OVCAR-8 ovarian
[42] = tested on: OVCAR-3 ovarian
[43] = tested on: SN12C renal
[44] = tested on: LOX IMVI melanoma
[45] = tested on: CCRF-CEM leukemia
[46] = tested on: NCI/ADR-RES ovarian
[47] = tested on: HCC-2998 colon
[48] = tested on: NCI-H460 lung
[49] = tested on: U251 CNS
[50] = tested on: PC-3 prostate
[51] = tested on: IGROV1 ovarian
[52] = tested on: UO-31 renal
[53] = tested on: HL-60(TB) leukemia
[54] = tested on: OVCAR-5 ovarian
[55] = tested on: NCI-H522 lung
[56] = tested on: SK-MEL-5 melanoma
[57] = tested on: CAKI-1 renal
[58] = tested on: SK-MEL-2 melanoma

SMILES: C=C1CC[C@@H]2[C@]3(C)COC(c4ccccc4)O[C@@H]3CC[C@@]2(C)[C@@H]1C/C=C1/C(=O)OCC1OC(C)=O (stereo partly specified)
- GI50 [1]: 13.6 µM
- TGI [1]: 27.2 µM
- GI50 [2]: 8.95 µM
- TGI [2]: 21 µM
- GI50 [3]: 13.3 µM
- TGI [3]: 26.1 µM
- GI50 [4]: 19.3 µM
- TGI [4]: 34.4 µM
- GI50 [5]: 10.9 µM
- TGI [5]: 23 µM
- GI50 [6]: 15.4 µM
- TGI [6]: 32.3 µM
- GI50 [7]: 2250 nM
- TGI [7]: 5.78 µM
- GI50 [8]: 10.6 µM
- TGI [8]: 27 µM
- GI50 [9]: 3.34 µM
- TGI [9]: 15.5 µM
- GI50 [10]: 3.04 µM
- TGI [10]: 10.3 µM
- GI50 [11]: 10.4 µM
- TGI [11]: 23.4 µM
- GI50 [12]: 10.7 µM
- TGI [12]: 22.6 µM
- GI50 [13]: 3.63 µM
- TGI [13]: 13.7 µM
- GI50 [14]: 1770 nM
- TGI [14]: 19.3 µM
- GI50 [15]: 14.3 µM
- TGI [15]: 28.7 µM
- GI50 [16]: 7.44 µM
- TGI [16]: 20.9 µM
- GI50 [17]: 12.5 µM
- TGI [17]: 25.4 µM
- GI50 [18]: 5.05 µM
- TGI [18]: 19 µM
- GI50 [19]: 4.3 µM
- TGI [19]: 16.3 µM
- GI50 [20]: 7.28 µM
- TGI [20]: 20.3 µM
- GI50 [21]: 10.9 µM
- TGI [21]: 25.2 µM
- GI50 [22]: 13.9 µM
- TGI [22]: 26.9 µM
- GI50 [23]: 17.5 µM
- TGI [23]: 36.1 µM
- GI50 [24]: 15.1 µM
- TGI [24]: 28.4 µM
- GI50 [25]: 2700 nM
- TGI [25]: 7.85 µM
- GI50 [26]: 19.9 µM
- TGI [26]: 35.7 µM
- GI50 [27]: 20.5 µM
- TGI [27]: 67.4 µM
- GI50 [28]: 4.89 µM
- TGI [28]: 23.1 µM
- GI50 [29]: 16 µM
- TGI [29]: 31.2 µM
- GI50 [30]: 2670 nM
- TGI [30]: 10 µM
- GI50 [31]: 10.6 µM
- TGI [31]: 25.7 µM
- GI50 [32]: 4.12 µM
- TGI [32]: 14.8 µM
- GI50 [33]: 4.13 µM
- TGI [33]: 17 µM
- GI50 [34]: 4.43 µM
- TGI [34]: 28.6 µM
- GI50 [35]: 3.72 µM
- TGI [35]: > 100 µM
- GI50 [36]: 15.7 µM
- TGI [36]: 34.3 µM
- GI50 [37]: 15.1 µM
- TGI [37]: 29.1 µM
- GI50 [38]: 10.4 µM
- TGI [38]: 22.5 µM
- GI50 [39]: 19 µM
- TGI [39]: 33.4 µM
- GI50 [40]: 17.1 µM
- TGI [40]: 33.1 µM
- GI50 [41]: 3.23 µM
- TGI [41]: 12.3 µM
- GI50 [42]: 2740 nM
- TGI [42]: 11.9 µM
- GI50 [43]: 5.64 µM
- TGI [43]: 18.9 µM
- GI50 [44]: 1800 nM
- TGI [44]: 3.61 µM
- GI50 [45]: 2540 nM
- TGI [45]: 10.9 µM
- GI50 [46]: 3.28 µM
- TGI [46]: 11.1 µM
- GI50 [47]: 13.9 µM
- TGI [47]: 26.9 µM
- GI50 [48]: 18.9 µM
- TGI [48]: 51.8 µM
- GI50 [49]: 10.4 µM
- TGI [49]: 24.5 µM
- GI50 [50]: 5.4 µM
- TGI [50]: 20.4 µM
- GI50 [51]: 14.4 µM
- TGI [51]: 27.8 µM
- GI50 [52]: 10.4 µM
- TGI [52]: 22.1 µM
- GI50 [53]: 7.37 µM
- TGI [53]: 39.2 µM
- GI50 [54]: 13.4 µM
- TGI [54]: 26.2 µM
- GI50 [55]: 10.2 µM
- TGI [55]: 22.8 µM
- GI50 [56]: 12.2 µM
- TGI [56]: 24.8 µM
- GI50 [57]: 12.2 µM
- TGI [57]: 24.7 µM
- GI50 [58]: 11.1 µM
- TGI [58]: 24.8 µM
